Measurements taken from PubChem BioAssay AID1963980 (Molecular Pharmacology Branch, DTP, NCI, 2024).

Test system: 475296-252-R-J1-PDC spheroid viability
Experiment: Anticancer human tumor 475296-252-R-J1-PDC patient-derived rectal carcinoma cell line growth inhibition [PI3K]
Settings: spheroids with HUVEC and MSC; for IC50: curve of first compound; for viability, T/C: stronger effect = lower value
Method in brief: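 Stroma-containing spheroids: tumor line, pooled-donor HUVEC, hMSC. Treatments: targeted agents with PI3K inhibitors. Dosing: clinically relevant, half-log spacing, 10 microM ceiling without known Cmax. Read-out: cell viability.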
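Also: spheroids exposed to agents for seven days before readout.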

## Cn1ncnc1[C@H]1c2n[nH]c(=O)c3cc(F)cc(c23)N[C@@H]1c1ccc(F)cc1 + Cc1nc(NC(=O)N2CCCC2C(N)=O)sc1-c1ccnc(C(C)(C)C(F)(F)F)c1
Second compound 0.0316 µM
  IC50: > 100 nM
Second compound 0.1 µM
  IC50: > 100 nM
Second compound 0.316 µM
  IC50: > 100 nM
Second compound 1 µM
  IC50: > 100 nM
Second compound 3.16 µM
  IC50: > 100 nM
Second compound 10 µM
  IC50: > 100 nM
Second compound 0.0316 µM, first compound 0.000316 µM
  viability, T/C: 104%
Second compound 0.0316 µM, first compound 0.001 µM
  viability, T/C: 88.4%
Second compound 0.0316 µM, first compound 0.00316 µM
  viability, T/C: 106%
Second compound 0.0316 µM, first compound 0.01 µM
  viability, T/C: 87.1%
Second compound 0.0316 µM, first compound 0.0316 µM
  viability, T/C: 98.8%
Second compound 0.0316 µM, first compound 0.1 µM
  viability, T/C: 101%
Second compound 0.1 µM, first compound 0.000316 µM
  viability, T/C: 92%
Second compound 0.1 µM, first compound 0.001 µM
  viability, T/C: 87.1%
Second compound 0.1 µM, first compound 0.00316 µM
  viability, T/C: 94.7%
Second compound 0.1 µM, first compound 0.01 µM
  viability, T/C: 101%
Second compound 0.1 µM, first compound 0.0316 µM
  viability, T/C: 110%
Second compound 0.1 µM, first compound 0.1 µM
  viability, T/C: 103%
Second compound 0.316 µM, first compound 0.000316 µM
  viability, T/C: 89.7%
Second compound 0.316 µM, first compound 0.001 µM
  viability, T/C: 92.4%
Second compound 0.316 µM, first compound 0.00316 µM
  viability, T/C: 88.9%
Second compound 0.316 µM, first compound 0.01 µM
  viability, T/C: 99.6%
Second compound 0.316 µM, first compound 0.0316 µM
  viability, T/C: 105%
Second compound 0.316 µM, first compound 0.1 µM
  viability, T/C: 90.8%
Second compound 1 µM, first compound 0.000316 µM
  viability, T/C: 91.3%
Second compound 1 µM, first compound 0.001 µM
  viability, T/C: 99.5%
Second compound 1 µM, first compound 0.00316 µM
  viability, T/C: 101%
Second compound 1 µM, first compound 0.01 µM
  viability, T/C: 91.7%
Second compound 1 µM, first compound 0.0316 µM
  viability, T/C: 92.6%
Second compound 1 µM, first compound 0.1 µM
  viability, T/C: 104%
Second compound 3.16 µM, first compound 0.000316 µM
  viability, T/C: 85.8%
Second compound 3.16 µM, first compound 0.001 µM
  viability, T/C: 90%
Second compound 3.16 µM, first compound 0.00316 µM
  viability, T/C: 91.5%
Second compound 3.16 µM, first compound 0.01 µM
  viability, T/C: 87.7%
Second compound 3.16 µM, first compound 0.0316 µM
  viability, T/C: 87.7%
Second compound 3.16 µM, first compound 0.1 µM
  viability, T/C: 88.6%
Second compound 10 µM, first compound 0.000316 µM
  viability, T/C: 91.7%
Second compound 10 µM, first compound 0.001 µM
  viability, T/C: 92.1%
Second compound 10 µM, first compound 0.00316 µM
  viability, T/C: 84.7%
Second compound 10 µM, first compound 0.01 µM
  viability, T/C: 83.3%
Second compound 10 µM, first compound 0.0316 µM
  viability, T/C: 91.3%
Second compound 10 µM, first compound 0.1 µM
  viability, T/C: 84.6%
